Where “and” joins values, the source holds several entries; their conditions need not be identical. Equal entries are not always repeated. Where two headings read alike, the source gives them in different places.
How the values were obtained:
[1] = system: pediatric patients having nmDMD; assay: North Star Ambulatory Assessment (NSAA), 16-, 8- and 3-item, NCT02819557; assay type: in vivo, human
Source text: Certain assessments on the NSAA 16-point scale were revised to reflect developmental stages for a pediatric patient population, e.g., “Lifts Head” was removed from the total, Items 3 and 8 on the NSAA scales were further revised to detect changes in the pediatric younger age group.^18,22 The same analysis was used for all subjects (n=14).
However, all patients were included in the baseline and week 52 assessments.

[2] = Effective plasma concentration range for maximum benefit by 6 minute walking distance (6 MWD); design: species or system human; conditions: in vivo
Method: As used herein, the term “therapeutically effective amount” refers to that amount of ataluren administered to a patient based on patient weight that is sufficient to attain an average plasma concentration in a range of at least about 1 μg/mL to about 20 μg/mL during a 24 hour time period.

[3] = Ataluren plasma pharmacokinetics, NCT02819557 phase 2 open-label trial (LC-MS/MS); assay type: in vivo, human; conditions: for Cmax (0-6 hr) / concentration at 6 h / AUC(0-t) / Tmax: oral 10, 10, 20 mg/kg TID; for concentration at 6 h / AUC(0-t) / Tmax: male, human, plasma; for concentration at 6 h: oral, read-out: Ctrough-6 hr; for AUC(0-t) / Tmax: po, 20 mg/kg; for Tmax: read-out: tmax (0-6 hr)
Method: A total dose of 40 mg/kg/day study drug was administered as three divided doses per day. The first dose administered was: 10 mg/kg in the morning, the second dose administered was 10 mg/kg at midday, and the third dose administered was 20 mg/kg in the evening.
Evaluations included blood sampling for gene sequencing, blood sampling for ataluren PK, vital signs, height, weight, physical exam, hematology urinalysis, 12-lead ECG, palatability questionnaire, adverse events (AEs), concomitant medications and non-DMD-related Aes. For single-dose and steady-state plasma concentrations, blood samples were collected pre-dose and at 1, 2, 4, 6, 8, and 10 hours post-dose on Days 1 (Visit 2) and 28 (Visit 3). Ataluren plasma concentrations were determined using a validated liquid chromatography with tandem mass spectrometry (LC-MS/MS) method, with a lower limit of quantification (LOQ) of 0.500 μg/mL. Efficacy evaluations included TFTs and the NSAA, adapted as described below.
Observed values of plasma concentrations for ataluren were summarized at each visit and time point by dose level. Descriptive statistics (n, mean, standard deviation [SD], coefficient of variation [CV %], median, minimum, and maximum) and geometric means and their CV % were calculated. PK parameters (AUC0-6, AUC0-10, Cmax (0-6 hr) Ctrough (0-6 hr), t max (0-6 hr), accumulation ratio (AR) (AUC), AR (Cmax)) were derived using actual sampling and dosing times. Concentrations below the LOQ were set to zero for the calculation of non-compartmental analysis (NCA) parameters.

boys with nmDMD = conditions: boys about seven to about 16 years of age with nmDMD, Phase 3 NCT01826487; cited from earlier work
[4] = system: pediatric patients having nmDMD; assay: Timed function tests (TFTs), NCT02819557; assay type: in vivo, human; conditions: for decrease in mean time taken to descend 4 stairs (SD): 40 mg/kg/day
Method: For timed function tests (TFTs), results summarizing the baseline values (Study Day 1), post-baseline values, and the change from baseline values were analyzed separately for each of the 4 tests, including time taken to i). walk/run 10 meters, ii). Climb 4 stairs, iii). Descend 4 stairs, and iv). Stand from a supine position. The 10 m walk/run test was assessed once. If the time taken to perform a TFT exceeded 30 seconds or if a subject could not perform a TFT due to disease progression, a value of 30 seconds was set for the summary analysis. The time values in seconds were summarized using descriptive statistics: n, mean, SD, median, range, and 95% confidence intervals. Observed values, and changes from baseline in TFTs were summarized accordingly for the evaluable population.

[5] = Day 1 and Day 28, most subjects
[6] = Week 0 - Day 1, arithmetic mean, n=14
[7] = Week 4 - Day 28, arithmetic mean, n=14
[8] = Week 4 - Day 28 vs Day 1, arithmetic mean, n=14

SMILES: O=C(O)c1cccc(-c2noc(-c3ccccc3F)n2)c1 [ataluren, 3-[5-(2-fluoro-phenyl)-[1,2,4]oxadiazol-3-yl]-benzoic acid]
- 3-item NSAA score, mean (SD) ([1]; Week 28, N=13): 5.8 (±0.38)
- 8-item NSAA score, mean (SD) ([1]; Week 28, N=13): 12.1 (+3.12)
- 16-item NSAA total score, mean (SD) ([1]; Week 28, N=13): 19.8 (±6.17) and 19.8 (6.17)
- 16-item NSAA total score, percent improvement over baseline ([1]; Week 28, N=13): 24.88% and 24.88 (27.203) %
- 3-item NSAA score, percent improvement over baseline ([1]; Week 28 vs baseline 5.4): 10.26%
- 8-item NSAA score, percent improvement over baseline ([1]; Week 28 vs baseline 10.5): 15.14%
- 16-item NSAA total score, improvement over baseline ([1]; Week 28 vs baseline 16.2, N=13): 3.5 (±3.43) points
- 3-item NSAA score, mean (SD) ([1]; Week 52, N=14): 5.6 (+0.63)
- 8-item NSAA score, mean (SD) ([1]; Week 52, N=14): 12.8 (+3.12)
- 16-item NSAA total score, mean (SD) ([1]; Week 52, N=14): 21.5 (±6.48) and 21.5 (6.48)
- 16-item NSAA total score, percent improvement over baseline ([1]; Week 52, N=14): 36.63% and 36.63 (29.956) %
- 3-item NSAA score, percent improvement over baseline ([1]; Week 52 vs baseline 5.4): 6.31%
- 8-item NSAA score, percent improvement over baseline ([1]; Week 52 vs baseline 10.5): 23.31%
- 16-item NSAA total score, improvement over baseline ([1]; Week 52 vs baseline 16.0, N=14): 5.5 (±4.43) points
- time post morning dose at which the effective plasma concentration range is typically found [2]: ≤ 2 h
- time of peak concentration post-morning dose (first peak) [3, 5]: approximately 2 hours
- time of peak concentration post-morning dose (second peak, 2 hours post midday dose) [3, 5]: ~8 h
- drug accumulation across doses ([3]; Day 28 vs Day 1): no apparent accumulation
- Cmax (0-6 hr) [3, 6]: 15950 ng/mL
- Cmax (0-6 hr) [3, 7]: 12540 ng/mL
- AR AUC0-6 (accumulation ratio) [3, 8]: 0.99
- AR Cmax (accumulation ratio) [3, 8]: 1.02
- concentration at 6 h [3, 6]: 9120 ng/mL
- concentration at 6 h [3, 7]: 5430 ng/mL
- AUC(0-t) ([3]; Week 0 - Day 1, arithmetic mean, n=14, boys ≥2 to <5 years with nmDMD, read-out: AUC0-6): 53000 ng·h/mL
- AUC(0-t) ([3]; Week 0 - Day 1, arithmetic mean, n=14, read-out: AUC0-10): 102000 ng·h/mL
- Tmax [3, 6]: 3.84 h
- AUC(0-t) ([3]; Week 4 - Day 28, arithmetic mean, n=14, read-out: AUC0-6): 43600 ng·h/mL
- AUC(0-t) ([3]; Week 4 - Day 28, arithmetic mean, n=14, read-out: AUC0-10): 82100 ng·h/mL
- Tmax [3, 7]: 2.72 h
- plasma levels and safety in the younger population relative to older children ([3]; ≥2 to <5 yrs vs ≥5 yrs nmDMD populations): similar
- tolerability (boys with nmDMD): generally well tolerated
- Timed Function Test assessments, change from baseline ([4]; all four TFTs over the 52-week study period): overall improvements from baseline
- mean reduction from baseline, 10 m walk/run time ([4]; week 28, 13 patients): 0.8 (±1.54) seconds
- mean percent improvement (SD), time to climb 4 stairs ([4]; week 28 vs baseline): 9.10 (±29.63) percent and 9.10 (29.630) percent
- mean percent improvement (SD), time to descend 4 stairs ([4]; week 28 vs baseline): 7.17 (±26.43) percent and 7.17 (26.433) percent
- mean percent improvement, 10 m walk/run ([4]; week 28 vs baseline): 8.35% and 8.35 (22.778) %
- reduction in mean time to climb 4 stairs ([4]; week 28 vs baseline, N=13): 1.8 (±4.85) seconds
- decrease in mean time taken to descend 4 stairs (SD) ([4]; week 28 vs mean baseline of 7.1 seconds, 12 patients): 0.6 (±1.93) seconds
- mean reduction from baseline, 10 m walk/run time ([4]; week 52, 14 patients): 1.1 (±1.35) seconds
- mean percent improvement (SD), time to climb 4 stairs ([4]; week 52 vs baseline): 23.36 (±26.25) percent and 23.36 (26.249) percent
- mean percent improvement (SD), time to descend 4 stairs ([4]; week 52 vs baseline): 24.22 (±28.32) percent and 24.22 (28.322) percent
- mean percent improvement, 10 m walk/run ([4]; week 52 vs baseline): 14.54% and 14.54 (14.862) %
- reduction in mean time to climb 4 stairs ([4]; week 52 vs baseline, N=14): 2.6 (±5.0) seconds
- decrease in mean time taken to descend 4 stairs (SD) ([4]; week 52 vs mean baseline of 7.5 seconds, 13 patients): 2.2 (±2.58) seconds
- mean improvement from baseline in stand from supine position assessment, week 28 compared with week 52 ([4]; weeks 28 (N=13) and 52 (N=14)): similar

— patent publication US12458629B2, “Method for treating nonsense mutation mediated duchenne muscular dystrophy in pediatric patients” (PTC THERAPEUTICS, INC., priority 2019, dated 2025)
